The numbers were not newly measured in US20060115424A1, “Combination therapy of oxaliplatin and radioactively doped particles treating cancer” (priority 2003, published 2006), which cites them from elsewhere.

The test system of the data set is cancer. The conditions noted are these: Gray et al (2001) Annals of Oncology 12: 1711-1720.

`O=c1[nH]c(=O)n([C@H]2C[C@H](O)[C@@H](CO)O2)cc1F` [floxuridine]: the response rate is on record as 17.6% and the “time to disease progression” value is listed as 9.7 months.
